Legend:
OGD/R‐treated HT22 cells = assay: Neuroprotective effect on OGD/R-treated HT22 cells, cell viability by CCK-8; format: cell-based; details: 6 h OGD; for viability at 2 µM / viability at 20 µM: Mus musculus, HT-22, 24 h reoxygenation with compound, relative to control cells, mean ± S.D., n = 3
Method: HT22 cells were washed with phosphate buffered saline (PBS), then DMEM sugar‐free medium (Gibco, USA) was added and placed in the anaerobic incubator of 5% CO2, 1% O2, and 37 °C for 6 h. PB3 or other compounds were previously dissolved in DMEM/F‐12 with 10% FBS and 1% penicillin/streptomycin. After undergoing OGD for 6 h, the medium was replaced by DMEM/F‐12 with 10% FBS and 1% penicillin/streptomycin containing PB3 or other compounds and kept in a humidified 5% CO2, 37 °C incubator for 24 h.
(§1) The CCK‐8 assay kit (Yeasen, China) was used to assess cell viability. All operations were performed following instructions. HT22 cells were seeded into the 96‐well plate (3000 cells per well). The cells were cultured at 37 °C with 5% CO2 in a humidified incubator overnight. After 6 h of OGD, the medium was replaced by DMEM/F‐12 with 10% FBS and 1% penicillin/streptomycin containing PB3 or other compounds and kept in a humidified 5% CO2, 37 °C incubator for 24 h. Then, the cells were washed with PBS, the medium was replaced with DMEM/F‐12 with 10% FBS and 1% penicillin/streptomycin containing 10% CCK‐8 solution, and incubated for 1 h at 37 °C. The absorbance was assessed by a Synergy H1 multi‐mode microplate reader (BioTek, USA) at 450 nm.

[1] = biological target: T1, recombinant human G3BP1 protein (Homo sapiens, UniProt Q13283); assay: SPR analysis of binding to G3BP1 (Biacore T200, CM5 chip); details: 1:1 binding model, running buffer PBS
T1 construct: purchased Hubei Ipodix Biotechnology Co., Ltd. (China)
T1 sequence (Q13283 whole entry): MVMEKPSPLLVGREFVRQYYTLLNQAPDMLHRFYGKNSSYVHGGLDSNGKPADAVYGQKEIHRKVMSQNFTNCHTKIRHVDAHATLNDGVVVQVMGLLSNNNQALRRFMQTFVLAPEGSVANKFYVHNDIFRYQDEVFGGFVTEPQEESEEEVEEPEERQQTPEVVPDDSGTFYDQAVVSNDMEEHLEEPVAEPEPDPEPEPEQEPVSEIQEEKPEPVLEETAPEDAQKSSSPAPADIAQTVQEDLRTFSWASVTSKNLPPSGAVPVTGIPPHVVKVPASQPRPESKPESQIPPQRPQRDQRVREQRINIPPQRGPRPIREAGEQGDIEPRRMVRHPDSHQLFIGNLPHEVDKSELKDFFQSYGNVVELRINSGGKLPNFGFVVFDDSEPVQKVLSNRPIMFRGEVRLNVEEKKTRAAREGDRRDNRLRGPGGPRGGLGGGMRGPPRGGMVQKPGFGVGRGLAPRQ
Method: The SPR analyses were carried out using a Biacore T200 instrument (GE Healthcare, USA) with the Series Sensor Chip CM5 (GE Healthcare, USA). The recombinant human G3BP1 protein was purchased from Hubei Ipodix Biotechnology Co., Ltd. (China). The protein was immobilized on the chip using an amine coupling kit (GE Healthcare, USA). The blank channel served as the negative control. The binding experiments were performed at a flow rate of 30 µL min^−1. For the measurement of the kinetic parameters of PB3 and 6c, gradient dilutions of PB3 and 6c were injected into the immobilized protein. The running buffer was PBS. All biosensor data were processed and analyzed with Biacore T200 Evaluation software version 3.2 (GE Healthcare, USA) and fitted by a 1:1 binding model.

G3BP1 = biological target: T2, G3BP1 (Mus musculus, UniProt P97855); assay: Cellular thermal shift assay; format: binding; details: HT22 cell lysate
T2 construct: endogenous in cells; host or cells: HT22 cell lysate
T2 sequence (P97855 whole entry): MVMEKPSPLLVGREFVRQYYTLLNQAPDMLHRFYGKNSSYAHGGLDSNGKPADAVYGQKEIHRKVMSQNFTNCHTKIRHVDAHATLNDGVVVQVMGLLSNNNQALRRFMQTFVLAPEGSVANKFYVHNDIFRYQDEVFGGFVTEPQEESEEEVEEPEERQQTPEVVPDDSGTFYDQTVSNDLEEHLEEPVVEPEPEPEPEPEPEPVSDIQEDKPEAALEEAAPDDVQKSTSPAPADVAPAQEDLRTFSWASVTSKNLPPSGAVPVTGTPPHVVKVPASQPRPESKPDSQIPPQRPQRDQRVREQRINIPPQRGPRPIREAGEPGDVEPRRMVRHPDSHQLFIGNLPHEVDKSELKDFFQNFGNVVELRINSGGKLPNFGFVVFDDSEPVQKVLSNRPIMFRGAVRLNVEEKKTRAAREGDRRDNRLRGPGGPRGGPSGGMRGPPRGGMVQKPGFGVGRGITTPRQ
Method: HT22 cells were grown to 90% confluency and harvested by trypsin and resuspended in 1 mL PBS. The samples were subjected to three freeze–thaw cycles in liquid nitrogen. Each cell lysate was centrifuged (12000 g for 30 min at 4 °C), and the supernatant was collected. The supernatants were treated with PB3 (or PBS control) for 20 min. Subsequently, they were aliquoted into Eppendorf tubes and heated for 3 min to 44, 48, 52, 56, or 60 °C. The soluble fractions were analyzed by SDS‐polyacrylamide gel electrophoresis and immunoblotted with anti‐G3BP1 antibody.

SG in HT22 cells = assay: Immunofluorescence staining of G3BP1 to detect SG level in HT22 cells under OGD/R; format: cell-based; details: for ratio of SG‐positive cells: 100 µM; for SG levels: after 6 h of OGD, 24 h treatment
Method: Immunofluorescence analysis of the stress granule (SG) core component G3BP1 was utilized to investigate the SG formation in HT22 cells and the cortex. HT22 cells were treated with 4% paraformaldehyde for 15 min. Then the fixed brain tissue slices and HT22 cells were permeabilized for 5 min using 1% Triton X‐100 (Sigma‐Aldrich, USA) dissolved in PBS and blocked with a PBS solution containing 10% goat serum for 1 h, followed by incubation with anti‐G3BP1 antibody (catalog no. 66486‐1‐Ig, Proteintech, China) at 4 °C overnight. After being washed with PBS 3 times for 5 min each, samples were incubated with secondary antibody (Alexa Fluor 568 Goat anti‐mouse IgG, Invitrogen, USA) in the dark for 2 h at room temperature. The nucleus was stained with DAPI. Fluorescent pictures were obtained with a fluorescence microscope (Carl Zeiss, Germany).

[2] = tested on: eIF2α phosphatases (GADD34 and PPP1R15B/CReP) and eIF2α kinases (PERK and GCN2); assay: RT-qPCR of key factors regulating SG dynamics; format: cell-based; details: 50 µM, 6 h of reperfusion following OGD, HT22 cells
Method: Total RNA from HT22 cells was extracted with Trizol. The concentration and purity of RNA were determined by Nanodrop (Thermo Scientific, USA), and RNA was reverse transcribed by PrimeScript Reverse Transcription Master Mix (TaKaRa, Japan). Then RT‐qPCR was performed using Hieff qPCR SYBR Green Master Mix (Yeasen, China). The expression level of the transcripts was normalized to the constitutive expression level of β‐actin. The primers used for amplification are listed in Table S4 (Supporting Information).

[3] = tested on: G3BP1 knockdown HT22 cells; assay: Activity of PB3 in G3BP1 knockdown (siRNA) HT22 cells; format: cell-based; details: PB3 50 µM
Method: as §1
Apoptosis level was evaluated by TUNEL staining and flow cytometry. For TUNEL staining, HT22 cells were treated with 4% paraformaldehyde for 15 min. […] Red fluorescence was utilized to identify apoptotic cells, while 4′, 6‐diamidino‐2‐phenylindole (DAPI) was used to counterstain the nuclei. The fluorescence microscope (Carl Zeiss, Germany) was used to obtain images. For flow cytometry, apoptotic cells were determined with the Annexin V‐Alexa Fluor 488/PI apoptosis detection kit (Yeasen, China) by following the instructions. […] Cell apoptosis was immediately determined by Cytek Aurora (Cytek Biosciences, USA). […]

Structure (SMILES)	viability at 2 µM (OGD/R‐treated HT22 cells)	viability at 20 µM (OGD/R‐treated HT22 cells)	cell viability rate (OGD/R‐treated HT22 cells; PB3 at 20 to 400 µM, 24 h treatment)	Kd [1]	thermal stability of G3BP1 (G3BP1)	ratio of SG‐positive cells (SG in HT22 cells; 1 h after administration)	ratio of SG‐positive cells (SG in HT22 cells; after 24 h of reoxygenation)	SG levels (SG in HT22 cells)	expression of eIF2α phosphatases (GADD34 and PPP1R15B/CReP) [2]	expression of two eIF2α kinases (PERK and GCN2) [2]	cell viability, effect of G3BP1 knockdown [3]	rate of TUNEL‐positive cells [3]
Oc1cc(O)c2c(c1)O[C@H](c1ccc(O)c(O)c1)[C@@H](O)[C@@H]2c1c(O)cc(O)c2c1O[C@H](c1ccc(O)c(O)c1)[C@@H](O)C2 [Compound 1, procyanidin B3]	63.9 ± 3.36%	70.9 ± 6.71%	significantly improve cell viability rate	44 nM	enhanced the thermal stability of G3BP1	did not change significantly	significantly increased	enhance SG levels in a dose‐dependent manner	significantly lower	significantly higher	inhibited the neuroprotective effects	not significantly changed
CC(C)c1c(O)cc(O)c2c1O[C@H](c1ccc(O)c(O)c1)[C@@H](O)[C@@H]2c1c(O)cc(O)c2c1O[C@H](c1ccc(O)c(O)c1)[C@@H](O)C2 [Compound 6c, 8‐Isopropyl‐(+)‐Catechin‐(4α,8)‐(+)‐Catechin]	66 ± 1.97%	83.6 ± 4.34%		58 nM				mediate SG upregulation				
